The record followed here is patent publication US20260327211A1, “MODULATORS OF A POTASSIUM CHANNEL AND OF TRPV1 CHANNEL AND USES THEREOF” (Bsense Bio Therapeutics Ltd., priority 2023, published 2026).

Where two headings read alike, the source gives them in different places.

Broadly, the CLint scaled is the capacity of the preparation to metabolise the compound, expressed as a volume cleared per time. Read a high CLint scaled as faster metabolism.

The target of one data set is T1, hKv7.3/5 (Homo sapiens, UniProt O43525+Q9NR82).
T1 construct: expressed in transfected cells; host or cells: CHO
The data set is described as follows: Kv7.3/5 HCS, FLIPR potassium assay. It is filed as cell-based. The procedure: Cell culture: Chinese hamster ovary (CHO) cell-line cells were cultured in F-12 nutrient mixture (Biological Industries) supplemented with 10% fetal bovine serum with 1% penicillin-streptomycin (Biological Industries) in a humidified 5% CO2 incubator at 37° C. To express the appropriate gene either Kv7.3/5, Kv7.4 or TRPA1 5 μg plasmid was transfected using Amaxa, DT-133 program, with p-3 Kit.
Kv7.3/5 and 7.4HCS using FLIPR Potassium Assay Kit: Kv7.3/5 and 7.4 HCS using the FLIPR Potassium Assay Kit was performed similarly to the Kv7.2/3 HCS, except that the Tecan Spark plate-reader injectors were primed with Tl+(1 mM Tl2SO4) or Tl++K+(1 mM Tl2SO4; 5 mM K2SO4) for Kv7.3/5, or Tl+(1 mM Tl2SO4) or Tl++K+(1 mM Tl2SO4; 10 mM K2SO4) for Kv7.4 for channel activation and data correction.
FLIPR Potassium Assay Kit: The FLIPR Potassium Assay Kit (R8222 FLIPR Potassium Assay Explorer Kits, Molecular Devices) was used with transfected CHO cells.
According to optimization process, to achieve a uniform and consistent screening condition of molecules, the following protocol was established: 2 days following transfection cells were seeded in 384-well, black-walled, clear-bottomed, at a density of 5,000 cells per well 24 hours before the assay conductance and incubated overnight in their normal growth medium. On the experiment day the medium was replaced with HBSS, HEPES, and the tested compound/vehicle (0.2% DMSO). Dye solution (prepared according to the manufacturer) was added to the wells and plates were incubated for 1.5 hour light-protected in room temperature. The Tecan Spark plate-reader injectors were primed with Tl+(1 mM Tl2SO4) or Tl++K+(1 mM Tl2SO4; 5 mM K2SO4) for Kv7.3/5 channel activation and data correction or Tl+(1 mM Tl2SO4) or Tl++K+(1 mM Tl2SO4; 10 mM K2SO4) for Kv7.4 for channel activation and data correction. […] To calculate IC50 values, the data was fitted to sigmoidal regression using Prism GraphPad.

A short description of data set [1]: Rat liver microsome metabolic stability. As to conditions: rat liver microsomes; for half-life at 1 µM: read-out: RLM T1/2. It is filed as in vitro ADME. From the text: Liver microsomes which are subcellular particles derived from endoplasmic reticulum of hepatic cells were used for evaluating the tested compounds. These particles are rich in drug metabolizing enzymes, including the cytochrome p-450 family. Liver microsomes are a recommended test system for various in vitro drug metabolism and pharmacokinetics (DMPK) studies. CLint values lower than […] are considered suitable for drug development.
Liver Microsome Metabolic Stability Assay (NADPH): The liver microsome stability assay was evaluated through pre-incubation with HLMs. A liver microsome mixture (pooled from multiple donors) at a concentration of 0.5 mg/mL, and the test compound at a concentration of 1 μM, were warmed in the presence of a NADPH regenerating system (about 1.0 mM) at 37° C. Positive controls, including testosterone (a CYP3A4 substrate), propafenone (a CYP2D6 substrate), and diclofenac (a CYP2C9) substrate, were concurrently incubated with the HLMs, in the presence of the NADPH regenerating system (1.0 mM). Samples were extracted during incubation at multiple intervals: 0, 5, 15, 30, 45 and 60 minutes. To terminate the reactions, the samples were promptly mixed with cooled acetonitrile that included an internal standard (IS). An additional compound was incubated with the HLMs in the absence of the NADPH regeneration system, from which a sample was taken at the 60-minute interval.
The clearance of the test compound in the samples was subsequently analyzed by LC-MS/MS based on the peak area ratios of the analyte to the IS.
The following equation was used to calculate the microsome clearance: […]
Liver weight: 40 grams/kg, 30 grams/kg, 32 grams/kg, 20 grams/kg and 88 grams/kg, for rat, monkey, dog, human and mouse, respectively.
(Microsomes from liver hold many membrane-bound enzymes, among them those of drug oxidation.)

The nature of data set [2]: Metabolite identification (Met-ID), human hepatocytes. It is filed as in vitro ADME. On the procedure: Cell culture and incubation: Cryopreserved hepatocyte cells, from human and rat sources, were purchased from commercial sources or in-house production, and were cultured in Williams' Medium E supplemented with glutamine and HEPES, in a humidified 5% CO2 incubator at 37° C., to a cell density of […]. Then, solutions of test compounds at a concentration of 10 μM, or 7-Ethoxycoumarin, as a positive control, at a concentration of 30 μM, in Eagle's Minimum Essential Medium, Catalog No. 30-2003 (ATCC) supplemented with 20% fetal bovine serum, were introduced and the mixture was incubated for 120 minutes, or other specified time points.
The samples were analyzed for metabolites using an LC-MS method developed on […] and PDA systems. Comparative analyses of mass spectra and ion fragmentation between the parent compound and its metabolites were carried out, and metabolic profiling was determined using the mass spectrometric and/or PDA (UV) response. Hypothetical structures of metabolites and their metabolic pathways were proposed.

T1 sequence (O43525 whole entry): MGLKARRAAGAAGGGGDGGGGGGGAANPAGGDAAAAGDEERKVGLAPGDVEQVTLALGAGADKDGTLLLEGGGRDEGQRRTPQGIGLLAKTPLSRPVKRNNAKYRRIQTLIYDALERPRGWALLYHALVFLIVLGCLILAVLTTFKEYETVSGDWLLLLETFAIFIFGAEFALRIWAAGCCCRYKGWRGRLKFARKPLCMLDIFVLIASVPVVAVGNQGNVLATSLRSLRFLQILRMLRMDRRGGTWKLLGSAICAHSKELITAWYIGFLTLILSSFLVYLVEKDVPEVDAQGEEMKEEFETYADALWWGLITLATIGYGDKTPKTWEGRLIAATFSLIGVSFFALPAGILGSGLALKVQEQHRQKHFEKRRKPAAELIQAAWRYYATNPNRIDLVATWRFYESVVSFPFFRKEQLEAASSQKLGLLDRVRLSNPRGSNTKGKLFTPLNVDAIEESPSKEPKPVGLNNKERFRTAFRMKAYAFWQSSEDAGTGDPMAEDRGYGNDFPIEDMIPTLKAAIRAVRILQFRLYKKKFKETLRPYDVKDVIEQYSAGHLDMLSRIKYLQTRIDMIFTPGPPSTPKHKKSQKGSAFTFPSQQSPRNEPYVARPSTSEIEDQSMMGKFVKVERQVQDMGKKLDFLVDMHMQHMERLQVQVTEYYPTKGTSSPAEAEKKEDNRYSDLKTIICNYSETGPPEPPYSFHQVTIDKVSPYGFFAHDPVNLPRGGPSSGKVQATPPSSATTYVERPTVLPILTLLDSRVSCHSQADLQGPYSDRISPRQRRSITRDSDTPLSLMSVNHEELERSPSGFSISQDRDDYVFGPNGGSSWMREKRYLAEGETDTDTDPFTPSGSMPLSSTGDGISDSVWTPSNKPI
T1 sequence (Q9NR82 whole entry): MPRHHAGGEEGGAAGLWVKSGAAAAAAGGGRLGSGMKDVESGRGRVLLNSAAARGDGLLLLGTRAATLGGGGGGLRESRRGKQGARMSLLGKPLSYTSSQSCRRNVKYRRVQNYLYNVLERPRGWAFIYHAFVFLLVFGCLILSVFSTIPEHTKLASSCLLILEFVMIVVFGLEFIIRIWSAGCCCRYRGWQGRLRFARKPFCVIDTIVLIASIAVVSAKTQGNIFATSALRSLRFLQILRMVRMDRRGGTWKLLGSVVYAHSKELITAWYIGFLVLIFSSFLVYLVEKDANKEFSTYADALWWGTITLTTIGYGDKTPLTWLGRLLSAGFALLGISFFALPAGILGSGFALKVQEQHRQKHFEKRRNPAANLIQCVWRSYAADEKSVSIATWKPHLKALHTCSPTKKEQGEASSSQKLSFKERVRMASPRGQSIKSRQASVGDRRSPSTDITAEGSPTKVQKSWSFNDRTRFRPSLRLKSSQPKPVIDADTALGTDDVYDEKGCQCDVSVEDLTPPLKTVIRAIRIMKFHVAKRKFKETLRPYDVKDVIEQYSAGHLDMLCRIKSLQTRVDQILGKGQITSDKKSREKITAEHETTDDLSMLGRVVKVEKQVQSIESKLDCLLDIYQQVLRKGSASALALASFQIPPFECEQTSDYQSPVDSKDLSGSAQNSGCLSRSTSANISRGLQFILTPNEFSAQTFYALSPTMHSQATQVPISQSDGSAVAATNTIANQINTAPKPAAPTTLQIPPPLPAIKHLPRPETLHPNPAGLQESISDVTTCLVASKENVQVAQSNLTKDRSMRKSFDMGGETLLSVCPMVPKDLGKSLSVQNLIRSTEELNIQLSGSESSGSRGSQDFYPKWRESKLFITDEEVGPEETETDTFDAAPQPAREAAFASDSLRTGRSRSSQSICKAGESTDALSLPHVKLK

As for `O=C(Cc1cc(-n2cc(Cl)c3cc(Cl)cc(Cl)c32)ccc1F)NCCO` [Compound 627], the EC50 on hKv7.3/5 (read-out: Kv7.3/5 EC50 HCS) is above 0.6 µM. Moreover, in data set [1], the CLint scaled at 1 µM stood at 63.5 mL/min/kg and the half-life at 1 µM is 39.3 min.
As to `O=C(Cc1cc(-n2cc(C(F)(F)F)c3cc(Cl)cc(Cl)c32)ncn1)NCCO` [Compound 843], in data set [2] (human hepatocytes), the “Human Hepatocytes MetID” value was 0.2% and the “Human Hepatocytes MetID (glutathione conjugation)” value was “did not indicate the presence of glutathione conjugation”.
Take `O=C(Cc1ccnc(-n2cc(Cl)c3cc(Cl)cc(Cl)c32)n1)N[C@@H]1COC[C@H]1O` [Compound 820]: the “Human Hepatocytes MetID (glutathione conjugation)” value in data set [2] (human hepatocytes) was “did not indicate the presence of glutathione conjugation and None”.
With `CC(C)c1cc(Cl)cc(Cl)c1Nc1ccc(F)c(CC(=O)NCC(C)(C)O)c1` [NH91, reference compound], the half-life at 1 µM in data set [1] was 2.5 min.
In the case of `O=C(Cc1nccc(-n2cc(Cl)c3cc(Cl)cc(Cl)c32)n1)NC1COCC1O` (centres unmarked) [Compound 760], the EC50 on hKv7.3/5 (Thallium ions (Tl+) fluorescence, read-out: hKv7.3/5 EC50) worked out at 10.7 µM. Further, the half-life at 1 µM in data set [1] was 11.9 min. The “Human Hepatocytes MetID (glutathione conjugation)” value in data set [2] (human hepatocytes) is “did not indicate the presence of glutathione conjugation and None”.
As for `Cc1cn(-c2ccc(F)c(CC(=O)NCC(C)(C)O)c2)c2c(Cl)cc(Cl)cc12` [Compound 421], at hKv7.3/5 (read-out: Kv7.3/5 EC50 HCS), the EC50 came to 3 µM. For the same compound, in data set [1], the CLint scaled at 1 µM was 177 mL/min/kg and the half-life at 1 µM stood at 14.1 min.
As to `O=C(Cc1cncc(-n2cc(Cl)c3cc(Cl)cc(Cl)c32)c1)N[C@@H]1COC[C@H]1O` [Compound 661], the EC50 at hKv7.3/5 (read-out: Kv7.3/5 EC50 HCS) is 40.9 µM. Also, in data set [1], the CLint scaled at 1 µM worked out at 527 mL/min/kg and the half-life at 1 µM was 4.7 min. Also, the “Metabolites M1-M7 (glutathione conjugation), share of identified metabolites” value in data set [2] was found to be 2.09%.
